From patent US20240341171A1 (Semiconductor Energy Laboratory Co., Ltd., priority 2021, published 2024)

Experiments:
[1] = Calculation of solubility parameter (SP value) by molecular dynamics (LAMMPS); settings: calculated SP value against reference SP value of chloroform (approx. 9.4)
Excerpt: The solubility parameter (SP value) δ can be calculated by Formula (1) shown in the following Formula 1 and Formula (2) shown in the following Formula 2, using a cohesive energy density obtained by a molecular dynamics (MD) method using the interaction between molecules in the molecular assembly.
Note that in the above Formula 1 and Formula 2, NA represents Avogadro's constant, V represents a molar volume of a molecular assembly, Ecoh represents a cohesive energy, Eassembly/number of molecules represents an energy per molecule in an assembly, and Eisolated molecule represents energy of each molecule that constitutes the assembly.
As the energy of the assembly (Eassembly) and the energy of each molecule that constitutes the assembly (Eisolated molecule), a three-dimensional coordinate of a molecule that is calculated using LAMMPS, which is an open source software, can be used.
Specifically, an initial state of the molecular assembly in which molecules are arranged at random is generated, using a single material system of molecules whose SP value σ is intended to be calculated. Next, the energy Eassembly of the assembly is calculated by performing a MD calculation using an NTP ensemble until when the energy and the volume go into an equilibrium state. On the other hand, the energy Eisolated molecule of each molecule that constitutes the assembly is calculated in the following manner: the volume and the shape of each molecule that constitutes the assembly are fixed and sampling is performed by the MD calculation using NVT ensemble. Next, statistical processing and substitution into Formula 1 and Formula 2 are performed, whereby the SP value δ is calculated.
First, the energy Eassembly of the assembly of the PTCDI derivatives is calculated. Specifically, an initial state (also referred to as a liquid model) of the molecular assembly which consists of a single system of 100 PTCDI derivatives (shown above as (a) to (i)) arranged at random, is generated. Next, the MD calculation using the NTP ensemble is performed until the energy and the volume go into an equilibrium state. In the MD calculation, samplings of Step 1 under high-temperature and pressure-rising conditions, Step 2 under high-temperature and pressure-rising conditions, Step 3 under high-temperature and high-pressure conditions, Step 4 under high-temperature and normal-pressure conditions, and Step 5 under normal-temperature and normal-pressure conditions are sequentially performed. The energy Eassembly/number of molecules per molecule of the PTCDI derivative is calculated by dividing the calculated value by 100.
The energy Eassembly of the assembly of the solvent is calculated.
Next, the MD calculation using the NTP ensemble is performed until the energy and the volume go into an equilibrium state. […]

[2] = Solubility test of PTCDI compounds (1 mg, solvent added in 1 mL steps, ultrasonic treatment, visual check); format: physicochemical; settings: for solubility: in chloroform and tetrahydrofuran, judged visually; for solvent [mL] CHCl3: volume of chloroform needed to dissolve 1 mg of compound; for solvent [mL] THF: volume of tetrahydrofuran needed to dissolve 1 mg of compound
Experimental: In this example, a solubility test for a perylenetetracarboxylic diimide (PTCDI) compounds were performed.
First, 1 mg of each of the PTCDJ compounds represented by (a) to (d) were weighed out and added to transparent containers. Next, (1) 1 mL of a solvent was added, and then ultrasonic treatment was performed for 1 minute. After that, (2) whether the PTCDI compounds were dissolved in the solvents was checked visually.
In each PTCDI compound, aforementioned (1) and (2) were repeated until the PTCDI compounds were dissolved in the solvents. When a solution is colored in yellowish-orange and solids of materials disappear, the PTCDI compounds are regarded to be dissolved.

[3] = reference value from a website; cited from earlier work

SMILES	difference in SP value σ CHCl3 [1]	solubility [2]	solvent [mL] CHCl3 [2] [mL]	solvent [mL] THF [2] [mL]	SP value [3]
CN1C(=O)c2ccc3c4ccc5c6c(ccc(c7ccc(c2c37)C1=O)c64)C(=O)N(C)C5=O	2.9	extremely poor	>100	>100	
CCCCCCCCN1C(=O)c2ccc3c4ccc5c6c(ccc(c7ccc(c2c37)C1=O)c64)C(=O)N(CCCCCCCC)C5=O	1.3	improved as compared with that of Me-PTCDI	55	>100	
CCCCC(CC)CN1C(=O)c2ccc3c4ccc5c6c(ccc(c7ccc(c2c37)C1=O)c64)C(=O)N(CC(CC)CCCC)C5=O (centres unmarked)	1.0	improved as compared with that of PTCDI-C8	1	16	
CCC(CC)N1C(=O)c2ccc3c4ccc5c6c(ccc(c7ccc(c2c37)C1=O)c64)C(=O)N(C(CC)CC)C5=O [(d) EtPr-PTCDI, 2,9-di(pentan-3-yl)anthra[2,1,9-def:6,5,10-d′e′f]diisoquinoline-1,3,8,10(2H,9H)-tetraone]	0.9	extremely favorable	1	1	
ClC(Cl)Cl [chloroform]					approximately 9.4 (cal/cm^3)^1/2
